ChEMBL document CHEMBL4219202, “C21 steroidal glycosides with cytotoxic activities from Cynanchum otophyllum” (Bioorg Med Chem Lett, 2018)

Assays:
Format in all cases: functional, cell-based
[1] = tested on: HL-60; assay: Cytotoxicity against human HL60 cells assessed as reduction in cell viability after 48 hrs by MTS assay; details: HL-60, 48 h
[2] = tested on: A549; assay: Cytotoxicity against human A549 cells assessed as reduction in cell viability after 48 hrs by MTS assay; details: A549, 48 h
[3] = tested on: SMMC-7721; assay: Cytotoxicity against human SMMC7721 cells assessed as reduction in cell viability after 48 hrs by MTS assay; details: SMMC-7721, 48 h
[4] = tested on: MCF7; assay: Cytotoxicity against human MCF7 cells assessed as reduction in cell viability after 48 hrs by MTS assay; details: MCF7, 48 h
[5] = tested on: SW480; assay: Cytotoxicity against human SW480 cells assessed as reduction in cell viability after 48 hrs by MTS assay; details: SW480, 48 h

| SMILES | IC50 [1] [µM] | IC50 [2] [µM] | IC50 [3] [µM] | IC50 [4] [µM] | IC50 [5] [µM] |
| --- | --- | --- | --- | --- | --- |
| CO[C@H]1C[C@H](O[C@H]2CC[C@@]3(C)C(=CC[C@]4(O)[C@@H]3C[C@@H](OC(=O)/C=C/C(C)C)[C@@]3(C)[C@]4(O)CC[C@@]3(O)C(C)=O)C2)O[C@H](C)[C@H]1O[C@H]1C[C@H](OC)[C@H](O[C@H]2C[C@@H](OC)[C@H](O)[C@@H](C)O2)[C@@H](C)O1 | 25.8 | > 40 | > 40 | > 40 | > 40 |
| CO[C@H]1C[C@H](O[C@H]2CC[C@@]3(C)C(=CC[C@]4(O)[C@@H]3C[C@@H](OC(=O)/C=C(\C)C(C)C)[C@@]3(C)[C@]4(O)CC[C@@]3(O)C(C)=O)C2)O[C@H](C)[C@H]1O[C@H]1C[C@H](OC)[C@H](O[C@H]2C[C@@H](OC)[C@H](O)[C@@H](C)O2)[C@@H](C)O1 | 11.4 | 27.7 | 27.9 | 16.1 | 30.3 |
| CO[C@H]1C[C@H](O[C@H]2CC[C@@]3(C)C(=CC[C@]4(O)[C@@H]3C[C@@H](OC(=O)/C=C(\C)C(C)C)[C@@]3(C)[C@]4(O)CC[C@@]3(O)C(C)=O)C2)O[C@H](C)[C@H]1O[C@H]1C[C@H](OC)[C@H](O[C@H]2C[C@@H](OC)[C@H](O[C@H]3C[C@@H](OC)[C@H](O)[C@@H](C)O3)[C@@H](C)O2)[C@@H](C)O1 | 12.2 | > 40 | 30.8 | 18 | 28.8 |
| CO[C@H]1C[C@H](O[C@H]2CC[C@@]3(C)C(=CC[C@]4(O)[C@@H]3C[C@@H](OC(=O)/C=C(\C)C(C)C)[C@@]3(C)[C@]4(O)CC[C@@]3(O)C(C)=O)C2)O[C@H](C)[C@H]1O[C@H]1C[C@H](O)[C@H](O[C@H]2C[C@@H](OC)[C@H](O)[C@@H](C)O2)[C@@H](C)O1 | 12.9 | 30.4 | 27.4 | 17.2 | 24.8 |
| CO[C@H]1C[C@H](O[C@H]2[C@@H](OC)C[C@H](O[C@H]3CC[C@@]4(C)C(=CC[C@]5(O)[C@@H]4C[C@@H](OC(=O)/C=C/c4ccccc4)[C@@]4(C)[C@]5(O)CC[C@@]4(O)C(C)=O)C3)O[C@@H]2C)O[C@H](C)[C@H]1O | 20.6 | 35.5 | 33.1 | 25.6 | 36.7 |
| CO[C@H]1C[C@H](O[C@H]2CC[C@@]3(C)C(=CC[C@]4(O)[C@@H]3C[C@@H](OC(=O)/C=C(\C)C(C)C)[C@@]3(C)[C@]4(O)CC[C@@]3(O)C(C)=O)C2)O[C@H](C)[C@H]1O | 25.6 | > 40 | > 40 | > 40 | > 40 |
| CO[C@H]1C[C@H](O[C@H]2[C@@H](OC)C[C@H](O[C@H]3CC[C@]4(C)[C@H]5C[C@@H](OC(=O)/C=C(\C)C(C)C)[C@@]6(C)[C@](O)(CC[C@@]6(O)C(C)=O)[C@]5(O)C[C@@H]5O[C@@]54C3)O[C@@H]2C)O[C@H](C)[C@H]1O | 15.8 | > 40 | > 40 | > 40 | > 40 |
| CO[C@H]1C[C@H](O[C@H]2CC[C@@]3(C)C(=CC[C@]4(O)[C@@H]3C[C@@H](OC(=O)c3ccc(O)cc3)[C@@]3(C)[C@]4(O)CC[C@@]3(O)C(C)=O)C2)O[C@H](C)[C@H]1O[C@H]1C[C@H](OC)[C@H](O[C@H]2C[C@@H](OC)[C@H](O)[C@@H](C)O2)[C@@H](C)O1 | 29.1 | > 40 | > 40 | > 40 | > 40 |
| CO[C@H]1C[C@H](O[C@H]2CC[C@@]3(C)C(=CC[C@]4(O)[C@@H]3C[C@@H](OC(=O)c3ccccc3)[C@@]3(C)[C@]4(O)CC[C@@]3(O)C(C)=O)C2)O[C@H](C)[C@H]1O[C@H]1C[C@@H](OC)[C@H](O)[C@@H](C)O1 | 15.6 | > 40 | > 40 | > 40 | > 40 |
| COc1cc(C(=O)O[C@@H]2C[C@@H]3[C@@]4(C)CC[C@H](O[C@H]5C[C@H](O)[C@H](O[C@H]6C[C@H](OC)[C@H](O[C@H]7C[C@@H](OC)[C@H](O)[C@@H](C)O7)[C@@H](C)O6)[C@@H](C)O5)CC4=CC[C@@]3(O)[C@@]3(O)CC[C@@](O)(C(C)=O)[C@@]23C)ccc1O | 37.9 | > 40 | > 40 | > 40 | > 40 |
| CO[C@H]1C[C@H](O[C@H]2CC[C@@]3(C)C(=CC[C@]4(O)[C@@H]3C[C@@H](OC(=O)/C=C(\C)C(C)C)[C@@]3(C)[C@]4(O)CC[C@@]3(O)C(C)=O)C2)O[C@H](C)[C@H]1O[C@H]1C[C@@H](OC)[C@H](O)[C@@H](C)O1 | 15.4 | > 40 | > 40 | > 40 | > 40 |
| CO[C@H]1C[C@H](O[C@H]2[C@@H](O)C[C@H](O[C@H]3CC[C@@]4(C)C(=CC[C@]5(O)[C@@H]4C[C@@H](OC(=O)/C=C(\C)C(C)C)[C@@]4(C)[C@]5(O)CC[C@@]4(O)C(C)=O)C3)O[C@@H]2C)O[C@H](C)[C@H]1O | 15.7 | > 40 | > 40 | > 40 | > 40 |
| C/C=C(\C)C(=O)O[C@@H]1C[C@@H]2[C@@]3(C)CC[C@H](O[C@H]4C[C@H](OC)[C@H](O[C@H]5C[C@H](OC)[C@H](O[C@H]6C[C@@H](OC)[C@H](O)[C@@H](C)O6)[C@@H](C)O5)[C@@H](C)O4)CC3=CC[C@@]2(O)[C@@]2(O)CC[C@@](O)(C(C)=O)[C@@]12C | 15.6 | > 40 | > 40 | > 40 | > 40 |
